Measurements taken from patent US9187467B2, “2-phenyl benzothiazole linked imidazole compounds as potential anticancer agents and process for the preparation thereof” (Council of Scientific and Industrial Research, priority 2012, dated 2015).
Read-outs that look alike come from different tables or passages of the source.

How the values were obtained:
SNB-75 = test: SRB anticancer assay, CNS; assay type: cell-based, human; conditions: Homo sapiens, SNB-75, 48 h
SN12C = test: SRB anticancer assay, renal; assay type: cell-based, human; conditions: Homo sapiens, 48 h
MCF7 = test: SRB anticancer assay, breast; assay type: cell-based, human; conditions: Homo sapiens, MCF7, 48 h
SNB-19 = test: SRB anticancer assay, CNS; assay type: cell-based, human; conditions: Homo sapiens, SNB-19, 48 h
SK-MEL-2 = test: SRB anticancer assay, melanoma; assay type: cell-based, human; conditions: Homo sapiens, SK-MEL-2, 48 h
[1] = system: Non-small cell lung cancer cell lines; test: SRB anticancer assay, panel result; assay type: cell-based, human; conditions: for LC50 / GI50: Homo sapiens; for LC50: 50% net cell death, read-out: mean graph midpoint value (MG_MID) of Log10 LC50 (converted); for mean graph midpoint value (MG_MID) of log10 TGI: total inhibition of net cell growth
Method: (§1) The compounds were evaluated for anticancer activity against sixty human cancer cells derived from nine cancer types (leukemia cell line, non-small-cell lung cell line, colon cell line, CNS cell line, melanoma cell line, ovarian cell line, prostate cell line, renal cancer cell line and breast cancer cell line) as shown in Table 1. For each compound, dose response curves for each cell line were measured at a minimum of five concentrations at 10 fold dilutions. A protocol of 48 h continuous drug exposure was used and a sulforhodamine B (SRB) protein assay was used to estimate cell viability or growth.

[2] = system: Melanoma cancer cell lines; test: SRB anticancer assay, panel result; assay type: cell-based, human; conditions: for LC50 / GI50: Homo sapiens; for LC50: 50% net cell death, read-out: mean graph midpoint value (MG_MID) of Log10 LC50 (converted); for mean graph midpoint value (MG_MID) of log10 TGI: total inhibition of net cell growth
Method: as §1

Colon cancer cell lines = test: SRB anticancer assay, panel result; assay type: cell-based, human; conditions: for mean graph midpoint value (MG_MID) of log10 TGI: total inhibition of net cell growth; for LC50 / GI50: Homo sapiens; for LC50: 50% net cell death, read-out: mean graph midpoint value (MG_MID) of Log10 LC50 (converted)
Method: as §1

CNS cancer cell lines = test: SRB anticancer assay, panel result; assay type: cell-based, human; conditions: for mean graph midpoint value (MG_MID) of log10 TGI: total inhibition of net cell growth; for CC50 / GI50: Homo sapiens; for CC50: 50% net cell death, read-out: mean graph midpoint value (MG_MID) of Log10 LC50 (converted)
Method: as §1

[3] = system: Leukemia cancer cell lines; test: SRB anticancer assay, panel result; assay type: cell-based, human; conditions: for LC50 / GI50: Homo sapiens; for LC50: 50% net cell death, read-out: mean graph midpoint value (MG_MID) of Log10 LC50 (converted); for mean graph midpoint value (MG_MID) of log10 TGI: total inhibition of net cell growth
Method: as §1

Breast cancer cell lines = test: SRB anticancer assay, panel result; assay type: cell-based, human; conditions: for mean graph midpoint value (MG_MID) of log10 TGI: total inhibition of net cell growth; for CC50 / GI50: Homo sapiens; for CC50: 50% net cell death, read-out: mean graph midpoint value (MG_MID) of Log10 LC50 (converted)
Method: as §1

[4] = system: Ovarian cancer cell lines; test: SRB anticancer assay, panel result; assay type: cell-based, human; conditions: for LC50 / GI50: Homo sapiens; for LC50: 50% net cell death, read-out: mean graph midpoint value (MG_MID) of Log10 LC50 (converted); for mean graph midpoint value (MG_MID) of log10 TGI: total inhibition of net cell growth
Method: as §1

Renal cancer cell lines = test: SRB anticancer assay, panel result; assay type: cell-based, human; conditions: for CC50 / GI50: Homo sapiens; for CC50: 50% net cell death, read-out: mean graph midpoint value (MG_MID) of Log10 LC50 (converted); for mean graph midpoint value (MG_MID) of log10 TGI: total inhibition of net cell growth
Method: as §1

[5] = system: Prostate cancer cell lines; test: SRB anticancer assay, panel result; assay type: cell-based, human; conditions: for LC50 / GI50: Homo sapiens; for LC50: 50% net cell death, read-out: mean graph midpoint value (MG_MID) of Log10 LC50 (converted); for mean graph midpoint value (MG_MID) of log10 TGI: total inhibition of net cell growth
Method: as §1

K562 (Leukemia) cells = test: Cell cycle distribution by flow cytometry; assay type: cell-based
Method: (§2) In order to investigate the mechanism underlying the anti-proliferative effect of the compounds the cell cycle distribution was analyzed in K562 (Leukemia) and MCF-7 (Breast carcinoma) cell lines by flow cytometry. Compounds CA-4, 21a, 21d, 4c, 6d, 6e, 6f, 7d, 7h and 7j have shown 1.72%, 14%, 12%, 14%, 12%, 14%, 14%, 16%, 16% &12% in K562 cells and 49.63%, 21%, 20%, 18%, 21%, 21%, 21%, 24%, 23% and 23% in MCF-7 cell line respectively. […] Thus compound 7d was considered for further studies (FIG. 1).

[6] = system: MCF-7 (Breast carcinoma) cells; test: Cell cycle distribution by flow cytometry (FACS); assay type: cell-based; conditions: MCF-7 cells, 2 μM, 24h
Method: FIG. 1 represents FACS analysis of cell cycle distribution of MCF-7 cells after treatment with compounds CA-4, 21a, 21d, 4c, 6d, 6e, 6f, 7d, 7h and 7j at 2 μM concentration for 24h and control cells are the cells treated with DMSO (0.25%).
as §2

M14 = test: SRB anticancer assay, melanoma; assay type: cell-based, human; conditions: Homo sapiens, M14, 48 h
NCI/ADR-RES = test: SRB anticancer assay, ovarian; assay type: cell-based, human; conditions: Homo sapiens, NCI/ADR-RES, 48 h
HCT-116 = test: SRB anticancer assay, colon; assay type: cell-based, human; conditions: Homo sapiens, HCT-116, 48 h
OVCAR-8 = test: SRB anticancer assay, ovarian; assay type: cell-based, human; conditions: Homo sapiens, OVCAR-8, 48 h
OVCAR-4 = test: SRB anticancer assay, ovarian; assay type: cell-based, human; conditions: Homo sapiens, OVCAR-4, 48 h
RXF 393 = test: SRB anticancer assay, renal; assay type: cell-based, human; conditions: Homo sapiens, RXF 393, 48 h
[7] = Non-small cell lung panel, read-out: mean graph midpoint value (MG_MID) of Log10 GI50 (converted)
[8] = nine Non-small cell lung cancer cell lines, exposure at least 48 h, read-out: GI50, range over the panel
[9] = Melanoma panel, read-out: mean graph midpoint value (MG_MID) of Log10 GI50 (converted)
[10] = nine melanoma cancer cell lines, exposure at least 48 h, read-out: GI50, range over the panel
[11] = Colon panel, read-out: mean graph midpoint value (MG_MID) of Log10 GI50 (converted)
[12] = seven colon cancer cell lines, exposure at least 48 h, read-out: GI50, range over the panel
[13] = CNS panel, read-out: mean graph midpoint value (MG_MID) of Log10 GI50 (converted)
[14] = six CNS cancer cell lines, exposure at least 48 h, read-out: GI50, range over the panel
[15] = Leukemia panel, read-out: mean graph midpoint value (MG_MID) of Log10 GI50 (converted)
[16] = six leukemia cancer cell lines, exposure at least 48 h, read-out: GI50, range over the panel
[17] = Breast panel, read-out: mean graph midpoint value (MG_MID) of Log10 GI50 (converted)
[18] = six breast cancer cell lines, exposure at least 48 h, read-out: GI50, range over the panel
[19] = Ovarian panel, read-out: mean graph midpoint value (MG_MID) of Log10 GI50 (converted)
[20] = seven ovarian cancer cell lines, exposure at least 48 h, read-out: GI50, range over the panel
[21] = Renal panel, read-out: mean graph midpoint value (MG_MID) of Log10 GI50 (converted)
[22] = eight renal cancer cell lines, exposure at least 48 h, read-out: GI50, range over the panel
[23] = Prostate panel, read-out: mean graph midpoint value (MG_MID) of Log10 GI50 (converted)

SMILES: COc1cc(OC)c2sc(-c3ccc(-n4cncc4-c4ccc(OC)c(OC)c4)cc3)nc2c1 [Compound 6e, 2-(4-(5-(3,4-Dimethoxyphenyl)-1H-imidazol-1-yl)phenyl)-5,7-dimethoxybenzo[d]thiazole]
- GI50 (SNB-75): 7.21 µM
- GI50 (SN12C): > 100 µM
- GI50 (MCF7): 5.36 µM
- GI50 (SNB-19): > 100 µM
- GI50 (SK-MEL-2): 41.4 µM
- LC50 ([1]; Non-small cell lung panel): > 100 µM
- GI50 [1, 7]: 22.9 µM
- GI50 [1, 8]: 5.26 to 41.8 µM
- mean graph midpoint value (MG_MID) of log10 TGI ([1]; Non-small cell lung panel): −4.01
- LC50 ([2]; Melanoma panel): > 100 µM
- GI50 [2, 9]: 40.7 µM
- GI50 [2, 10]: 3.61 to 59.8 µM
- mean graph midpoint value (MG_MID) of log10 TGI ([2]; Melanoma panel): >−4.0
- mean graph midpoint value (MG_MID) of log10 TGI (Colon cancer cell lines; Colon panel): >−4.0
- LC50 (Colon cancer cell lines; Colon panel): > 100 µM
- GI50 (Colon cancer cell lines; [11]): 25.1 µM
- GI50 (Colon cancer cell lines; [12]): 5.48 to 7.13 µM
- mean graph midpoint value (MG_MID) of log10 TGI (CNS cancer cell lines; CNS panel): −4.06
- CC50 (CNS cancer cell lines; CNS panel): > 100 µM
- GI50 (CNS cancer cell lines; [13]): 19.1 µM
- GI50 (CNS cancer cell lines; [14]): 7 to 9.96 µM
- LC50 ([3]; Leukemia panel): > 100 µM
- GI50 [3, 15]: 16.2 µM
- GI50 [3, 16]: 3.03 to 5.88 µM
- mean graph midpoint value (MG_MID) of log10 TGI ([3]; Leukemia panel): >−4.0
- mean graph midpoint value (MG_MID) of log10 TGI (Breast cancer cell lines; Breast panel): >−4.0
- CC50 (Breast cancer cell lines; Breast panel): > 100 µM
- GI50 (Breast cancer cell lines; [17]): 7.41 µM
- GI50 (Breast cancer cell lines; [18]): 3.78 to 28.4 µM
- LC50 ([4]; Ovarian panel): > 100 µM
- GI50 [4, 19]: 29.5 µM
- GI50 [4, 20]: 3.85 to 56.1 µM
- mean graph midpoint value (MG_MID) of log10 TGI ([4]; Ovarian panel): >−4.0
- CC50 (Renal cancer cell lines; Renal panel): > 100 µM
- GI50 (Renal cancer cell lines; [21]): 25.1 µM
- GI50 (Renal cancer cell lines; [22]): 2.15 to 3.17 µM
- mean graph midpoint value (MG_MID) of log10 TGI (Renal cancer cell lines; Renal panel): >−4.0
- LC50 ([5]; Prostate panel): > 100 µM
- GI50 [5, 23]: 10.2 µM
- GI50 ([5]; two prostate cancer cell lines (PC-3, DU-145), exposure at least 48 h, read-out: GI50, range over the panel): 3.66 to 27.9 µM
- mean graph midpoint value (MG_MID) of log10 TGI ([5]; Prostate panel): >−4.0
- cells in G2/M phase (K562 (Leukemia) cells): 14%
- cells in G2/M phase [6]: 21%
- GI50 (M14): > 100 µM
- GI50 (NCI/ADR-RES): > 100000 nM
- GI50 (HCT-116): 5.48 µM
- GI50 (OVCAR-8): 21.2 µM
- GI50 (OVCAR-4): 4.21 µM

SMILES: COc1cc(OC)cc(-c2cncn2-c2ccc(-c3nc4cc(OC)cc(OC)c4s3)cc2)c1 [Compound 6d, 2-(4-(5-(3,5-Dimethoxyphenyl)-1H-imidazol-1-yl)phenyl)-5,7-dimethoxybenzo[d]thiazole]
- GI50 (SNB-75): 3.28 µM
- GI50 (SN12C): > 100 µM
- GI50 (MCF7): 3.82 µM
- GI50 (SNB-19): > 100 µM
- GI50 (SK-MEL-2): 9.69 µM
- LC50 ([1]; Non-small cell lung panel): > 100 µM
- GI50 [1, 7]: 10.5 µM
- GI50 [1, 8]: 2.49 to 18.5 µM
- mean graph midpoint value (MG_MID) of log10 TGI ([1]; Non-small cell lung panel): −4.05
- LC50 ([2]; Melanoma panel): > 100 µM
- GI50 [2, 9]: 10.5 µM
- GI50 [2, 10]: 1.53 to 9.69 µM
- mean graph midpoint value (MG_MID) of log10 TGI ([2]; Melanoma panel): >−4.0
- mean graph midpoint value (MG_MID) of log10 TGI (Colon cancer cell lines; Colon panel): >−4.0
- LC50 (Colon cancer cell lines; Colon panel): > 100 µM
- GI50 (Colon cancer cell lines; [11]): 13.2 µM
- GI50 (Colon cancer cell lines; [12]): 4.52 to 4.93 µM
- mean graph midpoint value (MG_MID) of log10 TGI (CNS cancer cell lines; CNS panel): −4.19
- CC50 (CNS cancer cell lines; CNS panel): > 100 µM
- GI50 (CNS cancer cell lines; [13]): 7.94 µM
- GI50 (CNS cancer cell lines; [14]): 2.4 to 11.3 µM
- LC50 ([3]; Leukemia panel): > 100 µM
- GI50 [3, 15]: 3.31 µM
- GI50 [3, 16]: 3.22 to 3.3 µM
- mean graph midpoint value (MG_MID) of log10 TGI ([3]; Leukemia panel): >−4.0
- mean graph midpoint value (MG_MID) of log10 TGI (Breast cancer cell lines; Breast panel): >−4.0
- CC50 (Breast cancer cell lines; Breast panel): > 100 µM
- GI50 (Breast cancer cell lines; [17]): 4.57 µM
- GI50 (Breast cancer cell lines; [18]): 3.09 to 9.01 µM
- LC50 ([4]; Ovarian panel): > 100 µM
- GI50 [4, 19]: 7.94 µM
- GI50 [4, 20]: 2.87 to 14.5 µM
- mean graph midpoint value (MG_MID) of log10 TGI ([4]; Ovarian panel): >−4.0
- CC50 (Renal cancer cell lines; Renal panel): > 100 µM
- GI50 (Renal cancer cell lines; [21]): 12.9 µM
- GI50 (Renal cancer cell lines; [22]): 2.13 to 16.8 µM
- mean graph midpoint value (MG_MID) of log10 TGI (Renal cancer cell lines; Renal panel): >−4.0
- LC50 ([5]; Prostate panel): > 100 µM
- GI50 [5, 23]: > 100 µM
- mean graph midpoint value (MG_MID) of log10 TGI ([5]; Prostate panel): >−4.0
- cells in G2/M phase (K562 (Leukemia) cells): 12%
- cells in G2/M phase [6]: 21%
- GI50 (RXF 393): 6.58 µM
- GI50 (NCI/ADR-RES): 2580 nM
- GI50 (HCT-116): 4.93 µM
- GI50 (OVCAR-8): 14.5 µM
